Legend:
[1] = target: T1, human GPR 119 receptor (Homo sapiens, UniProt Q8TDV5); assay: cAMP assay in stable cell line expressing recombinant human GPR 119 receptor; type: cell-based; conditions: for Fold increase in cyclic AMP with respective to DMSO: DMSO = 1
T1 construct: expressed in transfected cells
T1 sequence (Q8TDV5 1-335): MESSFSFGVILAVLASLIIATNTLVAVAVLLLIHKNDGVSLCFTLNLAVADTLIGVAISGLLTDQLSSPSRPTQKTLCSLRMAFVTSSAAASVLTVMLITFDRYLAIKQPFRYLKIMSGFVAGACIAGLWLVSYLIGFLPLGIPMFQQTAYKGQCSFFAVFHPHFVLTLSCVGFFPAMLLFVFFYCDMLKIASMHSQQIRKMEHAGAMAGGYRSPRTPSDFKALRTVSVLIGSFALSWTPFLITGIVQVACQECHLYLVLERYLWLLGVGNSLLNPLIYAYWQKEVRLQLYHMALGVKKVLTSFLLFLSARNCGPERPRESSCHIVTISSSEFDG
Source text: A stable cell line expressing recombinant human GPR 119 receptor was established and used to investigate the efficacy of the compounds of the invention based on the intracellular levels of cyclic AMP (cAMP) using commercially available cAMP kits.

[2] = tested on: C57/BL6 mice; assay: Oral Glucose Tolerance Tests (OGTT) in C57/BL6 mice; type: in vivo; conditions: single oral dose, glucose load 3 gm/kg, serum glucose AUC, head 50 mg/kg
Experimental: In Vivo Efficacy Studies: Oral Glucose Tolerance Tests (OGTT) in C57/13L6 mice:
C57/BL6 mice of 6-8 week age are used for this experiment. Animals are grouped based on non-fasting serum glucose levels and kept on fasting for overnight (day before OGTT). On the experiment day, […], 30 min post dosing animals are bled for basal glucose level estimation and at the same time glucose load (3 gm/kg) will be administered per orally. Blood is collected at time points corresponding to 20, 40, 60 and 120 min after glucose load administration. Serum is separated for determination of glucose levels and change in area under curve for glucose is calculated and provided in Table 3 as % to reduction in AUC.

[3] = tested on: db/db mice; assay: Oral Glucose Tolerance Tests (OGTT) in db/db mice; type: in vivo; conditions: single oral dose 50 mg/kg, glucose load 2 g/kg, AUC glucose excursion vs vehicle control
Experimental: Oral Glucose Tolerance Tests (OGTT) in db/db mice:
db/db mice of 5-7 week age are used for this experiment. Animals were kept on fasting and are grouped based on fasting serum glucose levels and after grouping OGTT was performed. Each animal receive a single dose of vehicle/test compounds (50 mg/kg) administered orally, 30 min post dosing animals are bled for basal glucose level estimation and at the same time glucose load (2 g/kg) will be administered per orally. Blood is collected at time points corresponding to 30, 60 and 120 min after glucose load administration. Serum is separated for determination of glucose levels and change in area under curve for glucose and glucose excursion is calculated from Vehicle control with glucose load Vs water control group without glucose load and provided in Table 4 as % reduction in AUC glucose excursion Vs Vehicle control is calculated.

EC50 [1] [µM] | Fold increase in cyclic AMP with respective to DMSO ([1]; 10 nM compound) [fold] | Fold increase in cyclic AMP with respective to DMSO ([1]; 100 nM compound) [fold] | Fold increase in cyclic AMP with respective to DMSO ([1]; 1 uM compound) [fold] | Compound | % reduction in AUC at 50 mg/kg [2] [%] | % reduction in AUC at 50 mg/kg [3] [%]
0.124 | 0.79 | 1.32 | 2.24 | Cc1c(Oc2ccc(/C=C3\SC(=O)NC3=O)cc2)ncnc1OC1CCN(c2nc(C(C)C)no2)CC1 [Example 7, (Z)-5-(4-((6-((1-(3-iso-Propyl-1,2,4-oxadiazol-5-yl)piperidin-4-yl)oxy)-5-methylpyrimidin-4-yl)oxy)benzylidene)thiazolidine-2,4-dione] | 29.0 | 22.4
0.088 | 0.90 | 2.27 | 3.96 | Cc1c(Oc2ccc(/C=C3\SC(=O)NC3=O)cc2)ncnc1OC1CCN(C(=O)OC(C)(C)C)CC1 [Example 1, (Z)-tert-Butyl 4-((6-(4-((2,4-dioxothiazolidin-5-ylidene)methy 1)phenoxy)-5-methylpyrimidin-4-yl)oxy)piperidine-1-carboxylate] | 35.0 | 56.2
0.043 | 2.54 | 4.86 | 6.57 | Cc1c(Oc2cccc(/C=C3\SC(=O)NC3=O)c2)ncnc1OC1CCN(C(=O)OC(C)(C)C)CC1 [Example 9, (Z)-tert-Butyl 4-((6-(3-((2,4-dioxothiazolidin-5-ylidene)methyl)phenoxy)-5-methylpyrimidin-4-yl)oxy)piperidine-1-carboxylate] | 32.4 | 69.1
0.071 | – | – | – | CC(C)c1noc(N2CCC(Oc3cc(Oc4cccc(/C=C5\SC(=O)NC5=O)c4)ncn3)CC2)n1 [Example 66, (Z)-5-(3-((6-((1-(3-isopropyl-1,2,4-oxadiazol-5-yl)piperidin-4-yl)oxy)pyrimidin-4-yl)oxy)benzylidene)thiazolidine-2,4-dione] | 41.1 | –
– | 5.90 | 8.00 | 12.56 | CCOC(=O)CN1C(=O)S/C(=C\c2ccc(Oc3ncnc(OC4CCN(C(=O)OC(C)(C)C)CC4)c3C)cc2)C1=O [Example 2, (Z)-tert-Butyl 4-((6-(4-((3-(2-ethoxy-2-oxoethyl)-2,4-dioxothiazolidin-5-ylidene)methyl)phenoxy)-5-methylpyrimidin-4-yl)oxy)piperidine-1-carboxylate] | 13.0 | 47.3
– | 0.84 | 1.06 | 2.57 | Cc1c(Oc2ccc(/C=C3\SC(=O)NC3=O)cc2)ncnc1OC1CCN(c2ncccn2)CC1 [Example 17, (Z)-5-(4-((5-Methyl-6-((1-(pyrimidin-2-yl)piperidin-4-yl)oxy)pyrimidin-4-yl)oxy)benzylidene)thiazolidine-2,4-dione] | – | –
– | 0.87 | 1.21 | 1.66 | COc1cc(/C=C2\SC(=O)NC2=O)ccc1Oc1cc(OC2CCN(C(=O)OC(C)(C)C)CC2)ncn1 [Example 40, (Z)-tert-Butyl 4-((6-(4-((2,4-dioxothiazolidin-5-ylidene)methyl)-2-methoxyphenoxy)pyrimidin-4-yl)oxy)piperidine-1-carboxylate] | – | –
0.13 | 2.22 | 4.47 | 7.00 | CC(C)(C)OC(=O)N1CCC(Oc2cc(Oc3ccc(/C=C4\SC(=O)NC4=O)cc3)ncn2)CC1 [Example 12, (Z)-tert-Butyl 4-((6-(4-((2,4-dioxothiazolidin-5-ylidene)methyl)phenoxy)pyrimidin-4-yl)oxy)piperidine-1-carboxylate] | 23.4 | 66.7
– | 0.85 | 1.38 | 2.20 | O=C1NC(=O)/C(=C/c2cccc(Oc3cc(OC4CCN(Cc5ccccc5)CC4)ncn3)c2)S1 [Example 39, (Z)-5-(3-((6-((1-Benzylpiperidin-4-yl)oxy)pyrimidin-4-yl)oxy)benzylidene)thiazolidine-2,4-dione] | – | –
– | 4.02 | 7.17 | 9.34 | CCc1cnc(N2CCC(Oc3ncnc(Oc4cccc(/C=C5\SC(=O)NC5=O)c4)c3C)CC2)nc1 [Example 26, (Z)-5-(3-((6-((1-(5-Ethylpyrimidin-2-yl)piperidin-4-yl)oxy)-5-methylpyrimidin-4-yl)oxy)benzylidene)thiazolidine-2,4-dione] | – | –

Compound | EC50 [1] [µM] | Fold increase in cyclic AMP with respective to DMSO ([1]; 10 nM compound) [fold] | Fold increase in cyclic AMP with respective to DMSO ([1]; 100 nM compound) [fold] | Fold increase in cyclic AMP with respective to DMSO ([1]; 1 uM compound) [fold] | % reduction in AUC at 50 mg/kg [2] [%] | % reduction in AUC at 50 mg/kg [3] [%]
CCOC(=O)N1CCC(Oc2ncnc(Oc3cccc(/C=C4\SC(=O)N(C)C4=O)c3)c2C)CC1 [Example 4, (Z)-Ethyl-4-((5-methyl-6-(3-((3-methyl-2,4-dioxothiazoldin-5-ylidene)methy 1)phenoxy)pyrimidin-4-yl)oxy)piperidine-1-carboxylate] | – | 4.52 | 4.95 | 7.17 | – | –

From US8785463B2, “GPR 119 agonists” (Cadila Healthcare Limited, priority 2010, dated 2014)
